target: T1, Thymidine kinase (Human herpesvirus 1 (strain SC16) (HHV-1) (Human herpes simplex virus1), UniProt P06479); test: Binding affinity towards HSV-1 thymidine kinase
T1 sequence (P06479 whole entry): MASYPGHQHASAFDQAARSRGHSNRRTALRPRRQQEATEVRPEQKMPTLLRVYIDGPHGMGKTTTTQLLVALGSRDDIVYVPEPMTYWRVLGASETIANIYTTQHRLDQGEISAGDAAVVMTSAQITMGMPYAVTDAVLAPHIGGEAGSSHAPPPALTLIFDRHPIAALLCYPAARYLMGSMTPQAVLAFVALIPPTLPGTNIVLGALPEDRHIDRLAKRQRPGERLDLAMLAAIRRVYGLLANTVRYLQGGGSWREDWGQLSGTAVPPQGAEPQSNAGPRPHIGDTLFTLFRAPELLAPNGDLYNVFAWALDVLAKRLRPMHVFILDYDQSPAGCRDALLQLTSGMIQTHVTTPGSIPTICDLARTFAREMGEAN

Going from `O=c1[nH]c(=O)n([C@H]2C[C@H](O)[C@@H](CO)O2)cc1-c1ccsc1` to `O=c1[nH]c(=O)n([C@H]2C[C@H](O)[C@@H](CO)O2)cc1-c1ccoc1`, the IC50 falls from 4 µM to 1.5 µM (2.7-fold). The second is the more potent here.

First: O=c1[nH]c(=O)n([C@H]2C[C@H](O)[C@@H](CO)O2)cc1-c1ccno1
Second: O=c1[nH]c(=O)n([C@H]2C[C@H](O)[C@@H](CO)O2)cc1-c1ccns1
The IC50 of the first is 12-fold higher: 36 µM for the first, 3.1 µM for the second.

Compared with `O=c1[nH]c(=O)n([C@H]2C[C@H](O)[C@@H](CO)O2)cc1-c1ccc(Cl)s1`, `O=c1[nH]c(=O)n([C@H]2C[C@H](O)[C@@H](CO)O2)cc1-c1ccc(Br)s1` is 1.5-fold higher in IC50: 2.3 µM for the first, 3.5 µM for the second. The first is the more potent here.

Going from `O=c1[nH]c(=O)n([C@H]2C[C@H](O)[C@@H](CO)O2)cc1-c1cscc1Br` to `O=c1[nH]c(=O)n([C@H]2C[C@H](O)[C@@H](CO)O2)cc1-c1sccc1Br`, the IC50 falls from 143 µM to 61 µM (2.3-fold). The second is the more potent here.

Compared with `O=c1[nH]c(=O)n([C@H]2C[C@H](O)[C@@H](CO)O2)cc1-c1ccc(Br)o1`, `O=c1[nH]c(=O)n([C@H]2C[C@H](O)[C@@H](CO)O2)cc1-c1ccc(Cl)o1` is 1.8-fold lower in IC50: 51 µM for the first, 28 µM for the second. The second is the more potent here.

Going from `O=c1[nH]c(=O)n([C@H]2C[C@H](O)[C@@H](CO)O2)cc1-c1ccccc1` to `O=c1[nH]c(=O)n([C@H]2C[C@H](O)[C@@H](CO)O2)cc1-c1cccs1`, the IC50 falls from 102 µM to 2.4 µM (42-fold). The second is the more potent here.

Compared with `Cc1ccc(-c2cn([C@H]3C[C@H](O)[C@@H](CO)O3)c(=O)[nH]c2=O)s1`, `O=c1[nH]c(=O)n([C@H]2C[C@H](O)[C@@H](CO)O2)cc1-c1cc(Br)no1` is 15-fold higher in IC50: 2.3 µM for the first, 34 µM for the second. The first is the more potent here.

First: O=c1[nH]c(=O)n([C@H]2C[C@H](O)[C@@H](CO)O2)cc1-c1sc(Br)cc1Br
Second: O=c1[nH]c(=O)n([C@H]2C[C@H](O)[C@@H](CO)O2)cc1-c1ccco1
The IC50 of the first is 21-fold higher: 62 µM for the first, 2.9 µM for the second.

— ChEMBL document CHEMBL1129029, “Understanding the binding of 5-substituted 2'-deoxyuridine substrates to thymidine kinase of herpes simplex virus type-1” (J Med Chem, 1996)
